Data from patent US4404217A, “3-Indolyl alkylene amino propanols and cardiovascular compositions thereof” (C. M. Industries, priority 1979, dated 1983).

Target: T1, α2 receptor (Rattus norvegicus, UniProt P22909)
T1 construct: plasmic membranes of rat brains; from tissue; host or cells: rat brain plasma membranes
T1 sequence (P22909 1-465): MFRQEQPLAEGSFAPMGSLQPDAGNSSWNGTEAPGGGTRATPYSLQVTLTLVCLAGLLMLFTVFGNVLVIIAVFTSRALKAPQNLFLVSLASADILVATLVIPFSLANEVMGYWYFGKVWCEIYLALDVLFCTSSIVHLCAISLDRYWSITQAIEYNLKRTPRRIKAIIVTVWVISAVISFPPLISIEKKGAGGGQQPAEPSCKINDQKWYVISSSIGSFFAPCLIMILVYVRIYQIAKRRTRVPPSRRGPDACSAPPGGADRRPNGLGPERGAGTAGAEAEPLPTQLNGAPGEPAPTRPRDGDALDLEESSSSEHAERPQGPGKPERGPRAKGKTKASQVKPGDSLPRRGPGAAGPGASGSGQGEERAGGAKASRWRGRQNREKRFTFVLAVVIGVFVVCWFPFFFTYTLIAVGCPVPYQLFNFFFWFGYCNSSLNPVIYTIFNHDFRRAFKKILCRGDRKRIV
Assay: Displacement of 3H clonidine, plasmic membranes of rat brains
Type: binding
Conditions: not given
Method: (§1) The binding tests are effected on suspensions of plasmic membranes coming from various organs. The suspensions of membranes are placed in incubation with the tritiated ligand and various concentrations of products to be tested. After incubation, each test is filtered on GFB(Whatman) filter, the filters are dried and introduced into counting flasks. The measurement of the radioactivity is assessed by scintillation in a liquid medium.
(§2) The tests were made on plasmic membranes of rat brains, in the presence of ^3 H clonidine 1.2×10^-9 M (α2 receptor) and of ^3 H WB4101 (N-[2-(2.6dimethoxyphenoxy)ethyl]1.4benzodioxane-2-methylamine), 0.2×10^-9 M (α1 receptor).

| Structure (SMILES) | EC50 [nM] |
| --- | --- |
| CC(Cc1c[nH]c2ccccc12)NCC(O)COc1ccccc1Cl (centres unmarked) [compound 7806] | 12 |
| CC(Cc1c[nH]c2ccc(Cl)cc12)NCC(O)COc1ccc(CC(N)=O)cc1 (centres unmarked) [compound 7859] | 19 |

Same assay, conditions: in vitro

| Structure (SMILES) | affinity for the receptor with clonidine (α2) |
| --- | --- |
| CCC(=O)c1ccc(OCC(O)CNC(C)Cc2c[nH]c3ccccc23)c(Cl)c1 (centres unmarked) [compound 7743] | no affinity |
| CC(Cc1c[nH]c2ccccc12)NCC(O)COc1ccccc1Cl (centres unmarked) [compound 7806] | no affinity |
| CC(Cc1c[nH]c2ccc(Cl)cc12)NCC(O)COc1ccc(CC(N)=O)cc1 (centres unmarked) [compound 7859] | no affinity |

Target: T2, β1 receptor (Canis lupus familiaris, UniProt P79148)
T2 construct: plasmic membranes of hearts of dogs (β1 receptor); from tissue; host or cells: dog heart plasma membranes
T2 sequence (P79148 whole entry): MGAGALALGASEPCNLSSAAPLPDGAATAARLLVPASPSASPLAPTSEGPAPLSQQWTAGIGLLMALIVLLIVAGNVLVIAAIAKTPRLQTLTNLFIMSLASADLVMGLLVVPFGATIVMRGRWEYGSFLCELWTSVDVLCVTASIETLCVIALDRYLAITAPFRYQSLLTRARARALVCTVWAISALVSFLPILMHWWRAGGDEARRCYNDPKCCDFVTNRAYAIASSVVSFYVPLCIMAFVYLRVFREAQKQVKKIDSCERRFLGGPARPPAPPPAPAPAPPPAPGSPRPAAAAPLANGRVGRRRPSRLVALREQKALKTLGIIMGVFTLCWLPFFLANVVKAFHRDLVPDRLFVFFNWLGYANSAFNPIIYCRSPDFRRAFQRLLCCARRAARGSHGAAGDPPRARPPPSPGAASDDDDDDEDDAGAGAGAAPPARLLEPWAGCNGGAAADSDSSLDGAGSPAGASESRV
Assay: Displacement of 3H dihydroalprenolol, plasmic membranes of hearts of dogs
Type: binding, dog
Conditions: not given
Method: as §1
(§3) The tests were made on plasmic membranes of hearts of dogs (β1 receptor) and lungs of rats (β2 receptors), in the presence of ^3 H dihydroalprenolol 4×10^-9 M.

| Structure (SMILES) | EC50 [nM] |
| --- | --- |
| CC(Cc1c[nH]c2ccccc12)NCC(O)COc1ccccc1Cl (centres unmarked) [compound 7806] | 27.5 |

Same assay, conditions: dog heart membranes; 3H dihydroalprenolol 4×10^-9 M

| Structure (SMILES) | EC50 [nM] |
| --- | --- |
| CC(Cc1c[nH]c2ccc(Cl)cc12)NCC(O)COc1ccc(CC(N)=O)cc1 (centres unmarked) [compound 7859] | 625 |

System: α adrenergic receptors
Assay: Antagonism of the effects of noradrenaline (pressure response), anaesthetized dog, IV
Type: in vivo
Conditions: 50% inhibition of pressure response to noradrenaline
Method: (§4) The dog is anaesthetized using sodium pentobarbital, administered by the IV route at a dose of 30 mg/kg. A cannula placed in the saphenous vein allows the intra-venous injections of the products. The animal is submitted to intubation and is allowed to breathe spontaneously.
(§5) The cardiac frequency and the systemic arterial pressure are studied and the variations of these parameters are observed after intra-venous injection of the product to be tested. Each product is tested with increasing doses.
The antagonism of the products with respect to the vascular effects provoked by the IV administration of noradrenaline on the α adrenergic receptors has been sought. The results presented in Table III are expressed in ID50 : it is the dose (mg/kg) which provokes the inhibition by 50% of the pressure response due to the IV administration of noradrenaline.

| Structure (SMILES) | ID50 NORADRENALINE α [mg/kg] |
| --- | --- |
| CCC(=O)c1ccc(OCC(O)CNC(C)Cc2c[nH]c3ccccc23)c(Cl)c1 (centres unmarked) [compound 7743] | 3 |
| CC(Cc1c[nH]c2ccccc12)NCC(O)COc1ccccc1Cl (centres unmarked) [compound 7806] | 0.3 |
| CC(Cc1c[nH]c2ccc(Cl)cc12)NCC(O)COc1ccc(CC(N)=O)cc1 (centres unmarked) [compound 7859] | 0.3 to 3 |

System: not listed separately
Assay: Cardiac frequency and arterial pressure in the anaesthetized dog after intravenous injection
Type: in vivo
Conditions: i.v. route, anaesthetised dog
Method: as §4, §5

| Structure (SMILES) | reduction in the peripheral arterial pressure |
| --- | --- |
| CC(Cc1c[nH]c2ccccc12)NCC(O)COc1ccccc1Cl (centres unmarked) [compound 7806] | reduction in the peripheral arterial pressure |

Target: T3, β adrenergic receptors (β2) (Canis lupus familiaris, UniProt P54833)
T3 construct: The dog is anaesthetized using sodium pentobarbital; from tissue; host or cells: whole anaesthetized dog (vasculature)
T3 sequence (P54833 whole entry): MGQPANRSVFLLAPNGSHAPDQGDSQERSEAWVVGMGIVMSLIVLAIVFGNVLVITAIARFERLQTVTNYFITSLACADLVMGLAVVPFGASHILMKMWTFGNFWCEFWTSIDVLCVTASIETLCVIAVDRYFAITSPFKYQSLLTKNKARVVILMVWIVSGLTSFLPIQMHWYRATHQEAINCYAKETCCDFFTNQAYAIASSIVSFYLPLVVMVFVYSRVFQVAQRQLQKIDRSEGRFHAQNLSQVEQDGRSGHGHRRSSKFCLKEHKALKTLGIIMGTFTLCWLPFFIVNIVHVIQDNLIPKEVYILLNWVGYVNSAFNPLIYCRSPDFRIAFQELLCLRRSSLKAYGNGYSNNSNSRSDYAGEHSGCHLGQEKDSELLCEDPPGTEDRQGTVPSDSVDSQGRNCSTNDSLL
Assay: Antagonism of the effects of isoprenaline, hypotension (β2), anaesthetized dog, IV
Type: in vivo
Conditions: IV, 50% inhibition of isoprenaline hypotension, read-out: ID50 ISOPRENALINE β2
Method: as §4, §5
The antagonism of the products with respect to the β stimulant cardio-vascular effects of isoprenaline on the β adrenergic receptors has been sought. […] The last column indicates the cardioselectivity (β1 >β2) or a low cardioselectivity β1 ≥β2, or no cardioselectivity β1 <β2 and β1 =β2.

| Structure (SMILES) | ED50 [mg/kg] |
| --- | --- |
| CC(Cc1c[nH]c2ccc(Cl)cc12)NCC(O)COc1ccc(CC(N)=O)cc1 (centres unmarked) [compound 7859] | ≥ 3 |

Same assay, conditions: iv, read-out: ID50 ISOPRENALINE β2

| Structure (SMILES) | ED50 [mg/kg] |
| --- | --- |
| CCC(=O)c1ccc(OCC(O)CNC(C)Cc2c[nH]c3ccccc23)c(Cl)c1 (centres unmarked) [compound 7743] | ≥ 3 |
| CC(Cc1c[nH]c2ccccc12)NCC(O)COc1ccccc1Cl (centres unmarked) [compound 7806] | ≥ 0.1 |

Target: T4, β2 receptors (Rattus norvegicus, UniProt P10608)
T4 construct: lungs of rats (β2 receptors); from tissue; host or cells: rat lung plasma membranes
T4 sequence (P10608 whole entry): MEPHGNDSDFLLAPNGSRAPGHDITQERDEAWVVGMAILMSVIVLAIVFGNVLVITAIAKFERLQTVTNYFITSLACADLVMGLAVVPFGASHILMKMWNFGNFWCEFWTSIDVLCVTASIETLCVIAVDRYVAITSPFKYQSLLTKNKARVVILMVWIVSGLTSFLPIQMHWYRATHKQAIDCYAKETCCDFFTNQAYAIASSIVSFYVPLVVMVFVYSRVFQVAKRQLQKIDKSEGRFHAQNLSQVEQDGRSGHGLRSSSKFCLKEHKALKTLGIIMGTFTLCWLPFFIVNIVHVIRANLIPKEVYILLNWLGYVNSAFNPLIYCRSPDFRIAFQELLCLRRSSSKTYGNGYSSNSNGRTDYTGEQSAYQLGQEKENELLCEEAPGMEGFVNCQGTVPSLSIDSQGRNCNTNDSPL
Assay: Displacement of 3H dihydroalprenolol, plasmic membranes of lungs of rats
Type: binding
Conditions: not given
Method: as §1, §3

| Structure (SMILES) | EC50 [nM] |
| --- | --- |
| CC(Cc1c[nH]c2ccccc12)NCC(O)COc1ccccc1Cl (centres unmarked) [compound 7806] | 12 |

Same assay, conditions: rat lung membranes; 3H dihydroalprenolol 4×10^-9 M

| Structure (SMILES) | EC50 [nM] |
| --- | --- |
| CC(Cc1c[nH]c2ccc(Cl)cc12)NCC(O)COc1ccc(CC(N)=O)cc1 (centres unmarked) [compound 7859] | 1000 |

System: α1 receptor
Assay: Displacement of 3H WB 4101, plasmic membranes of rat brains
Type: binding
Conditions: in vitro
Method: as §1, §2

| Structure (SMILES) | affinity for the receptor with WB 4101 (α1) |
| --- | --- |
| CC(Cc1c[nH]c2ccccc12)NCC(O)COc1ccccc1Cl (centres unmarked) [compound 7806] | have an affinity |

Same assay, conditions: read-out: EC50 of DISPLACEMENT of 3H WB 4101; rat brain membranes; 3H WB4101 0.2×10^-9 M

| Structure (SMILES) | EC50 [nM] |
| --- | --- |
| CC(Cc1c[nH]c2ccccc12)NCC(O)COc1ccccc1Cl (centres unmarked) [compound 7806] | 310 |
| CC(Cc1c[nH]c2ccc(Cl)cc12)NCC(O)COc1ccc(CC(N)=O)cc1 (centres unmarked) [compound 7859] | 2.3 |

Target: T5, β adrenergic receptors (β1) (Canis lupus familiaris, UniProt P79148)
T5 construct: The dog is anaesthetized using sodium pentobarbital; from tissue; host or cells: whole anaesthetized dog (heart)
T5 sequence (P79148 whole entry): as the sequence (P79148 whole entry) above
Assay: Antagonism of the effects of isoprenaline, tachycardia (β1), anaesthetized dog, IV
Type: in vivo
Conditions: dog, IV; isoprenaline antagonism, β1 versus β2

| Structure (SMILES) | cardioselectivity β1 - β2 |
| --- | --- |
| CCC(=O)c1ccc(OCC(O)CNC(C)Cc2c[nH]c3ccccc23)c(Cl)c1 (centres unmarked) [compound 7743] | β1 ≥ β2 (low cardioselectivity β1 ≥β2) |
| CC(Cc1c[nH]c2ccc(Cl)cc12)NCC(O)COc1ccc(CC(N)=O)cc1 (centres unmarked) [compound 7859] | β1 > β2 (cardioselectivity (β1 >β2)) |

Same assay, conditions: dog, iv, read-out: ID50 ISOPRENALINE β1

| Structure (SMILES) | ED50 [mg/kg] |
| --- | --- |
| CCC(=O)c1ccc(OCC(O)CNC(C)Cc2c[nH]c3ccccc23)c(Cl)c1 (centres unmarked) [compound 7743] | 1 to 3 |
| CC(Cc1c[nH]c2ccccc12)NCC(O)COc1ccccc1Cl (centres unmarked) [compound 7806] | 0.3 |
| CC(Cc1c[nH]c2ccc(Cl)cc12)NCC(O)COc1ccc(CC(N)=O)cc1 (centres unmarked) [compound 7859] | 0.3 to 1 |

Same assay, conditions: test with isoprenaline

| Structure (SMILES) | cardioselective in vivo (selectively inhibit the cardiac receptors) |
| --- | --- |
| CC(Cc1c[nH]c2ccc(Cl)cc12)NCC(O)COc1ccc(CC(N)=O)cc1 (centres unmarked) [compound 7859] | cardioselective in vivo |

System: platelet aggregation
Assay: Anti-aggregating activity, BORN technique, plasma rich in platelets, ADP
Type: cell-based, human
Conditions: human platelet-rich plasma
Method: The anti-aggregating activity of the CM 7743, 7744, 7824, 7854, 7859 and 7874 has been studied according to the BORN technique on plasma rich in platelets of human origin. ADP has been used as indicator of platelet aggregation. […] The required concentration for inhibiting by 50% the maximum rate of aggregation varies from 45 to 100 μM.

| Structure (SMILES) | inhibition of the platelet response with respect to the ADP |
| --- | --- |
| CCC(=O)c1ccc(OCC(O)CNC(C)Cc2c[nH]c3ccccc23)c(Cl)c1 (centres unmarked) [compound 7743] | inhibited the platelet response |
| CC(Cc1c[nH]c2ccc(Cl)cc12)NCC(O)COc1ccc(CC(N)=O)cc1 (centres unmarked) [compound 7859] | inhibited the platelet response |

Same assay, conditions: human platelet-rich plasma, ADP; range over all products tested; read-out: concentration for inhibiting by 50% the maximum rate of aggregation

| Structure (SMILES) | IC50 [nM] |
| --- | --- |
| CCC(=O)c1ccc(OCC(O)CNC(C)Cc2c[nH]c3ccccc23)c(Cl)c1 (centres unmarked) [compound 7743] | 45000 to 100000 |
| CC(Cc1c[nH]c2ccc(Cl)cc12)NCC(O)COc1ccc(CC(N)=O)cc1 (centres unmarked) [compound 7859] | 45000 to 100000 |
